Test results from patent US12679878B2, “CRF2 receptor agonists and their use in therapy” (SANOFI, priority 2020, dated 2026).
Read-outs that look alike come from different tables or passages of the source. Starred links: 1 amine or outer side, 2 acyl side, 3 side chain; linkers in the order of their positions; H or OH if unused. Non-standard residues stand in square brackets, D forms with d. Residues, ends and D or L forms follow the SMILES beside them. Groups on a side chain read outwards from the residue. *: point of attachment. C20 diacid = O=C(O)CCCCCCCCCCCCCCCCCCC(=O)*; C18 diacid = O=C(O)CCCCCCCCCCCCCCCCC(=O)*; γGlu = O=C(O)[C@H](CCC(=O)[*:2])N[*:1]; Palmitoyl = CCCCCCCCCCCCCCCC(=O)*; AEEA = NCCOCCOCC(=O)O; Aib = CC(C)(N)C(=O)O

How the values were obtained:
human CRF2α receptor = molecular target: T1, human CRF2α receptor (Homo sapiens, UniProt Q13324); test: cAMP agonism at human CRF2 α receptor in TeloHEAC cells (Example 7); assay type: cell-based; conditions: cAMP HTRF, TeloHEAC cells stably expressing human CRF2 α
T1 construct: expressed in transfected cells; host or cells: TeloHEAC
T1 sequence (Q13324 1-411): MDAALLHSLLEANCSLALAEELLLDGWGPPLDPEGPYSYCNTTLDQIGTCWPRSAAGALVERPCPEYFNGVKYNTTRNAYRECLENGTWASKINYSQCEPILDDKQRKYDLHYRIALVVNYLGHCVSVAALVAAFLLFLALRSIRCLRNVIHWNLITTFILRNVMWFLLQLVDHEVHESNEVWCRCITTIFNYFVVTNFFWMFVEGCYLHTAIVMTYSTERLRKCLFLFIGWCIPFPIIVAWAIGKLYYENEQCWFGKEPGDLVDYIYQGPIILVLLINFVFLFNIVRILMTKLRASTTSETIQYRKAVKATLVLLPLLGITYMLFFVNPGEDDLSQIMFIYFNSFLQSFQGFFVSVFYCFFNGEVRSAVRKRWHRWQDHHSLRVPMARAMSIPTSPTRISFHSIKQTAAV
Outline: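 Thawed frozen stably transfected cells in HBSS/20 mM HEPES (0% or 0.1% HSA) plus 2 mM IBMX were exposed to compound at 2000 cells/well for 30 min at room temperature. Intracellular cAMP was read by HTRF (665/620 nm ratio) after 1 h lysis; EC50 was derived with 1000 nM urocortin 2 set as 100%.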

[1] = Solubility in buffer systems by UPLC-UV (Example 13); assay type: physicochemical
Outline: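 Quantitation used UV peak area from UPLC of the 1:10-diluted supernatant, set against a reference-compound standard curve with extinction coefficients adjusted for amino acid sequence.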

[2] = Physical stability, Thioflavin T fibrillation assay (Example 14); assay type: physicochemical; conditions: 3 mg/ml, 37° C. shaking
Procedure: The physical stability of the compounds was assessed using a Thioflavin T (ThT) assay.
The time course for fibril formation often follows the characteristic shape of a sigmoidal curve and can be separated into three regions: a lag phase, a fast growth phase, and a plateau phase. The typical fibril formation process starts with the lag phase in which the amount of partially folded peptide turned into fibrils is not significant enough to be detected. The lag-time corresponds to the time the critical mass of the nucleus is built. Afterwards, a drastic elongation phase follows and fibril concentration increases rapidly. Therefore, by measuring the increase in fluorescence intensity attributable to ThT as well as the lag time of the increase, the fibrillation tendency of a peptide can be determined, thereby providing a measure of the physical stability of the peptide.
In the present study, test compounds were diluted in buffer to a final concentration of 3 mg/ml.
The fibrillation tendencies of the peptides were determined under stress using a Fluoroskan Ascent FL or Fluoroskan Ascent fluorometer. […] Plates were sealed with Scotch Tape (Quiagen). Samples were stressed by continuous cycles of 10 s shaking at 960 rpm and 50 s rest period at 37° C. Fibril development was monitored by measuring fluorescence intensity every 20 minutes. For each sample, eight replicates were tested.

CRF1R receptor = molecular target: T2, CRF1R receptor (Homo sapiens, UniProt P34998); test: cAMP activity at anti-target CRF1R, CRF1R-overexpression CHO cell line (Example 9); assay type: cell-based; conditions: CRF1R-overexpression CHO cell line; for Emax: read-out: Emax (%); for EC50: 0% HSA
T2 construct: host or cells: CHO-K1 clone 2
T2 sequence (P34998 24-415): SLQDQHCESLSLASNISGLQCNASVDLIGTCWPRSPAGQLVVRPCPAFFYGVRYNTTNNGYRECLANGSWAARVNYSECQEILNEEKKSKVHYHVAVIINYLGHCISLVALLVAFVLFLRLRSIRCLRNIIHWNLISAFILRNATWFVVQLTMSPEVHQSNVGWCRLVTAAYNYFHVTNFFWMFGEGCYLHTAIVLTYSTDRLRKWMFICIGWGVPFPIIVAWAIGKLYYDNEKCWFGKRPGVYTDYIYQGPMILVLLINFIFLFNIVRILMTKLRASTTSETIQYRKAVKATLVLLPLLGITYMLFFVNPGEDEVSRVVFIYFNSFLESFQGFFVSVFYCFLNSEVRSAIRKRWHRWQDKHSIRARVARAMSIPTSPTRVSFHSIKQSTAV
Outline: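 Using thawed CRF1R-overexpressing CHO cells at 2000 per well, compound is applied for 30 min at RT in HBSS/HEPES buffer with IBMX. Cellular cAMP content is determined via HTRF, and percent activity is calculated against 1000 nM UCN2 defined as 100%.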

rat CRF2R α receptor = test: cAMP agonism at rat CRF2R α receptor in A7R5 rat aortic smooth muscle cells (Example 8); assay type: cell-based; conditions: cAMP HTRF, A7R5 rat aortic smooth muscle cell line, 0% HSA
Outline: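 Potency (EC50) is the concentration reaching half-maximal activation, with responses scaled so that 1000 nM urocortin 2 equals 100%. Intracellular cAMP was quantified by homogeneous time-resolved fluorescence at 665/620 nm, 1 h after lysis-buffer reagents. Compound stimulation lasted 30 min at room temperature on 2000 IBMX-treated (2 mM) cells per well in HEPES-buffered HBSS.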

[3] = 0% HSA, read-out: EC50 [nM], 0% HSA
[4] = pH 4.5, Solubility in Buffer B [mg/ml]
[5] = Buffer B: 100 mM acetate buffer, pH 4.5, 2.7 mg/ml m-cresol
[6] = Buffer A: 100 mM acetate buffer, pH 4.5

EC50 (human CRF2α receptor; [3]) | EC50 (human CRF2α receptor; 0.1% HSA, read-out: EC50 [nM], 0.1% HSA) | solubility at 1 h [1, 4] | Increase in FI (fluorescence intensity) [2, 5] | Lag time [2, 5] | Emax (CRF1R receptor) | EC50 (rat CRF2R α receptor) | solubility at 1 h ([1]; pH 7.4, Solubility in Buffer C [mg/ml]) | Increase in FI (fluorescence intensity) [2, 6] | Lag time [2, 6] | EC50 (CRF1R receptor) | SMILES
0.02 nM | 0.03 nM | > 8.9 mg/mL | No | >45 h | 58.6% | – | – | – | – | – | CCCCCCCCCCCCCCCC(=O)N[C@@H](CCC(=O)NCCCC[C@H](NC(=O)[C@H](CC(C)C)NC(=O)[C@H](CCCCN)NC(=O)[C@@H](NC(=O)[C@@H]1CCCN1C(=O)[C@H](NC(=O)[C@H](CC(=O)O)NC(=O)[C@H](CC(C)C)NC(=O)[C@H](CO)NC(=O)[C@H](CC(C)C)NC(=O)[C@@H](NC(=O)[C@@H](N)[C@@H](C)CC)C(C)C)C(C)C)[C@@H](C)O)C(=O)N[C@@H](CCC(N)=O)C(=O)N[C@@H](CCCCN)C(=O)N[C@@H](CC(C)C)C(=O)N[C@@H](CC(C)C)C(=O)N[C@@H](CCCCN)C(=O)N[C@@H](CCC(N)=O)C(=O)N[C@@H](CCC(=O)O)C(=O)N[C@@H](CCCNC(=N)N)C(=O)N[C@@H](CCC(N)=O)C(=O)N[C@@H](CCCNC(=N)N)C(=O)N[C@@H](CCCCN)C(=O)N[C@@H](CCC(=O)O)C(=O)N[C@@H](CCCNC(=N)N)C(=O)N[C@@H](CCC(=O)O)C(=O)N[C@@H](CCC(N)=O)C(=O)N[C@@H](C)C(=O)N[C@@H](CCC(=O)O)C(=O)N[C@@H](CCCCN)C(=O)N[C@@H](CC(N)=O)C(=O)N[C@@H](C)C(=O)N[C@@H](CCCNC(=N)N)C(=O)N[C@H](C(=O)N[C@@H](CC(C)C)C(=O)N[C@@H](C)C(=O)N[C@@H](CCCNC(=N)N)C(=O)N[C@H](C(N)=O)C(C)C)[C@@H](C)CC)C(=O)O [compound 7] (H-IVLSLD[dV]PTKLK([γGlu-Palmitoyl])QKLLKQERQRKEREQAEKNARILARV-NH2)
0.48 nM | – | > 11.5 mg/mL | No | >45 h | 4.84% | 1.35 nM | > 11 mg/mL | No | >45 h | > 1000 nM | CC[C@H](C)[C@H](NC(=O)[C@H](CCC(N)=O)NC(=O)[C@H](CCCCNC(=O)COCCOCCNC(=O)COCCOCCNC(=O)CC[C@H](NC(=O)CCCCCCCCCCCCCCCCCCC(=O)O)C(=O)O)NC(=O)[C@@H](NC(=O)[C@H](CCCCN)NC(=O)[C@@H](NC(=O)[C@@H]1CCCN1C(=O)[C@@H](NC(=O)[C@H](CC(=O)O)NC(=O)[C@H](CC(C)C)NC(=O)[C@H](CO)NC(=O)[C@H](CC(C)C)NC(=O)[C@@H](NC(=O)[C@@H](N)Cc1ccccc1)[C@@H](C)O)C(C)C)[C@@H](C)O)[C@@H](C)CC)C(=O)N[C@@H](CC(C)C)C(=O)N[C@@H](CC(C)C)C(=O)N[C@@H](CCCCN)C(=O)N[C@@H](CCC(N)=O)C(=O)N[C@@H](CCC(N)=O)C(=O)N[C@@H](CCCCN)C(=O)N[C@@H](CCC(N)=O)C(=O)N[C@@H](CCCCN)C(=O)N[C@@H](CCCCN)C(=O)N[C@@H](CCC(=O)O)C(=O)N[C@@H](CCCNC(=N)N)C(=O)N[C@@H](CCC(N)=O)C(=O)N[C@@H](CCC(N)=O)C(=O)N[C@@H](C)C(=O)N[C@@H](CCC(=O)O)C(=O)N[C@@H](CCCCN)C(=O)N[C@@H](CC(N)=O)C(=O)N[C@@H](CCCCN)C(=O)N[C@@H](CCC(N)=O)C(=O)N[C@@H](CC(C)C)C(=O)N[C@@H](CC(C)C)C(=O)N[C@@H](CCC(=O)O)C(=O)N[C@@H](CCCNC(=N)N)C(=O)N[C@H](C(N)=O)C(C)C [compound 60] (H-FTLSLDVPTKIK([AEEA-AEEA-γGlu-C20 diacid])QILLKQQKQKKERQQAEKNKQLLERV-NH2)
0.65 nM | – | > 10.7 mg/mL | Yes | 34.7 to 41.0 h | 2.58% | 4.31 nM | – | – | – | > 1000 nM | CC[C@H](C)[C@H](N)C(=O)N[C@H](C(=O)N[C@@H](CC(C)C)C(=O)N[C@@H](CO)C(=O)N[C@@H](CC(C)C)C(=O)N[C@@H](CC(=O)O)C(=O)N[C@H](C(=O)N1CCC[C@H]1C(=O)N[C@H](C(=O)N[C@@H](CCCCN)C(=O)N[C@@H](CC(C)C)C(=O)N[C@@H](CCCCNC(=O)COCCOCCNC(=O)COCCOCCNC(=O)CC[C@H](NC(=O)CCCCCCCCCCCCCCCCC(=O)O)C(=O)O)C(=O)N[C@@H](CCC(N)=O)C(=O)N[C@H](C(=O)N[C@@H](CC(C)C)C(=O)N[C@@H](CC(C)C)C(=O)N[C@@H](CCC(=O)O)C(=O)N[C@@H](CCC(N)=O)C(=O)N[C@@H](CCC(=O)O)C(=O)N[C@@H](CCCNC(=N)N)C(=O)N[C@@H](CCC(N)=O)C(=O)N[C@@H](CCCCN)C(=O)N[C@@H](CCCCN)C(=O)N[C@@H](CCC(N)=O)C(=O)N[C@@H](CCCNC(=N)N)C(=O)N[C@@H](CCC(N)=O)C(=O)N[C@@H](CCC(N)=O)C(=O)N[C@@H](C)C(=O)N[C@@H](CCC(=O)O)C(=O)N[C@H](C(=O)N[C@@H](CC(N)=O)C(=O)NC(C)(C)C(=O)N[C@@H](CCC(N)=O)C(=O)N[C@H](C(=O)N[C@@H](CC(C)C)C(=O)N[C@@H](C)C(=O)N[C@@H](CCC(N)=O)C(=O)N[C@H](C(N)=O)C(C)C)[C@@H](C)CC)[C@@H](C)O)[C@@H](C)CC)[C@@H](C)CC)C(C)C)C(C)C [compound 72] (H-IVLSLDVPIKLK([AEEA-AEEA-γGlu-C18 diacid])QILLEQERQKKQRQQAETN[Aib]QILAQV-NH2; N-terminus assumed)
